Source: US20100216690A1, “Pegylated Single-Chain Insulin” (Novo Nordisk A/S, priority 2005, published 2010)

Legend:
[1] = biological target: T1, human insulin receptor (IR) (Homo sapiens, UniProt P06213); assay: Binding affinity to the human insulin receptor relative to human insulin (SPA antibody capture assay); conditions: binding affinity to the human insulin receptor relative to that of human insulin
Experimental: The PEGylated single-chain insulins were tested for biological insulin activity as measured by binding affinity to the human insulin receptor (IR) relative to that of human insulin as described below.
Insulin receptor binding of the PEGylated single-chain insulins of the invention.
The affinity of the PEGylated, single-chain insulins the invention for the human insulin receptor is determined by a SPA assay (Scintillation Proximity Assay) microtiterplate antibody capture assay. SPA-PVT antibody-binding beads, anti-mouse reagent (Amersham Biosciences, Cat No. PRNQ0017) are mixed with 25 ml of binding buffer (100 mM HEPES pH 7.8; 100 mM sodium chloride, 10 mM MgSO4, 0.025% Tween-20). Reagent mix for a single Packard Optiplate (Packard No. 6005190) is composed of 2.4 μl of a 1:5000 diluted purified recombinant human insulin receptor—exon 11, an amount of a stock solution of A14 Tyr[125I]-human insulin corresponding to 5000 cpm per 100 μl of reagent mix, 12 μl of a 1:1000 dilution of F12 antibody, 3 ml of SPA-beads and binding buffer to a total of 12 ml. A total of 100 μl is then added and a dilution series is made from appropriate samples. To the dilution series is then added 100 μl of reagent mix and the samples were incubated for 16 hours while gently shaken. The phases are then separated by centrifugation for 1 min and the plates counted in a Topcounter. The binding data are fitted using the nonlinear regression algorithm in the GraphPad Prism 2.01 (GraphPad Software, San Diego, Calif.).
Target sequence in this assay (P06213 28-746 isoform P06213-2 limits assumed): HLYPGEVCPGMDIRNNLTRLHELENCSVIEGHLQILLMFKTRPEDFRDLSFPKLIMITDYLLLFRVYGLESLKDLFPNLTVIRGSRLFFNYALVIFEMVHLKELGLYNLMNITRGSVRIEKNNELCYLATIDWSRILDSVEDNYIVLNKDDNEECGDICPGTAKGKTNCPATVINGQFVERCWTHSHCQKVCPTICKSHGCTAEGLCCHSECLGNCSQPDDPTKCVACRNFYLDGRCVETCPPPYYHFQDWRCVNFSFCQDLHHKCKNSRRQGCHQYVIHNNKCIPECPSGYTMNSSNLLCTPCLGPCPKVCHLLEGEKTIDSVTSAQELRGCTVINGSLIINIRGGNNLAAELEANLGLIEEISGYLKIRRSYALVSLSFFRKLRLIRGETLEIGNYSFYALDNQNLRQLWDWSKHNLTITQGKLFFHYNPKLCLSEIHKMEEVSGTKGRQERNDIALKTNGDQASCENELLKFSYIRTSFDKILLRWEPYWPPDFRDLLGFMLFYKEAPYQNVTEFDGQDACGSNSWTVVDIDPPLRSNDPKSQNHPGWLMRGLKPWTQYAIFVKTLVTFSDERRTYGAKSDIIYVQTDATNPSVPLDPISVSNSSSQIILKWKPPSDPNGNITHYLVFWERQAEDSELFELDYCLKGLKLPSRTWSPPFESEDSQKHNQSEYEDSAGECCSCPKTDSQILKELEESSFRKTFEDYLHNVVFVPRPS
Target sequence in this assay (P06213 763-1382 partner limits assumed): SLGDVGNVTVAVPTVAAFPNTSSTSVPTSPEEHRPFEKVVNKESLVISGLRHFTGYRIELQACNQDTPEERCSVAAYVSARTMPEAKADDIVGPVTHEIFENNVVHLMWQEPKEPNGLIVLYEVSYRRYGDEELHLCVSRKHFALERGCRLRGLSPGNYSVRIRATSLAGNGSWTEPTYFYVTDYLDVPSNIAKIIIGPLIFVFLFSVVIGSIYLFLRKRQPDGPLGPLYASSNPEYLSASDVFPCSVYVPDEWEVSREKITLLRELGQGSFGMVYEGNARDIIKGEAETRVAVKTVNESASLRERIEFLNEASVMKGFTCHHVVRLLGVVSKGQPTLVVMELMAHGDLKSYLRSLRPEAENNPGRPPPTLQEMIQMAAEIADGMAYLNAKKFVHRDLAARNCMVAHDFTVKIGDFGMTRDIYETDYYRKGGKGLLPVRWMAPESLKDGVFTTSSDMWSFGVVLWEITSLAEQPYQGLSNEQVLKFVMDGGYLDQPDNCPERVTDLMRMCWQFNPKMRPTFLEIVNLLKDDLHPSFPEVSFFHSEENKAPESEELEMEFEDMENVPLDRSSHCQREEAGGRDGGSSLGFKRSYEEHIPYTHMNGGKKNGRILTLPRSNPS

[2] = biological target: T1, human insulin receptor (IR); assay: displacement of 125I-human insulin from human insulin receptor; affinity relative to human insulin
Target sequence in this assay (P06213 other isoform, or with tags, fused parts or gaps limits assumed, form in doubt): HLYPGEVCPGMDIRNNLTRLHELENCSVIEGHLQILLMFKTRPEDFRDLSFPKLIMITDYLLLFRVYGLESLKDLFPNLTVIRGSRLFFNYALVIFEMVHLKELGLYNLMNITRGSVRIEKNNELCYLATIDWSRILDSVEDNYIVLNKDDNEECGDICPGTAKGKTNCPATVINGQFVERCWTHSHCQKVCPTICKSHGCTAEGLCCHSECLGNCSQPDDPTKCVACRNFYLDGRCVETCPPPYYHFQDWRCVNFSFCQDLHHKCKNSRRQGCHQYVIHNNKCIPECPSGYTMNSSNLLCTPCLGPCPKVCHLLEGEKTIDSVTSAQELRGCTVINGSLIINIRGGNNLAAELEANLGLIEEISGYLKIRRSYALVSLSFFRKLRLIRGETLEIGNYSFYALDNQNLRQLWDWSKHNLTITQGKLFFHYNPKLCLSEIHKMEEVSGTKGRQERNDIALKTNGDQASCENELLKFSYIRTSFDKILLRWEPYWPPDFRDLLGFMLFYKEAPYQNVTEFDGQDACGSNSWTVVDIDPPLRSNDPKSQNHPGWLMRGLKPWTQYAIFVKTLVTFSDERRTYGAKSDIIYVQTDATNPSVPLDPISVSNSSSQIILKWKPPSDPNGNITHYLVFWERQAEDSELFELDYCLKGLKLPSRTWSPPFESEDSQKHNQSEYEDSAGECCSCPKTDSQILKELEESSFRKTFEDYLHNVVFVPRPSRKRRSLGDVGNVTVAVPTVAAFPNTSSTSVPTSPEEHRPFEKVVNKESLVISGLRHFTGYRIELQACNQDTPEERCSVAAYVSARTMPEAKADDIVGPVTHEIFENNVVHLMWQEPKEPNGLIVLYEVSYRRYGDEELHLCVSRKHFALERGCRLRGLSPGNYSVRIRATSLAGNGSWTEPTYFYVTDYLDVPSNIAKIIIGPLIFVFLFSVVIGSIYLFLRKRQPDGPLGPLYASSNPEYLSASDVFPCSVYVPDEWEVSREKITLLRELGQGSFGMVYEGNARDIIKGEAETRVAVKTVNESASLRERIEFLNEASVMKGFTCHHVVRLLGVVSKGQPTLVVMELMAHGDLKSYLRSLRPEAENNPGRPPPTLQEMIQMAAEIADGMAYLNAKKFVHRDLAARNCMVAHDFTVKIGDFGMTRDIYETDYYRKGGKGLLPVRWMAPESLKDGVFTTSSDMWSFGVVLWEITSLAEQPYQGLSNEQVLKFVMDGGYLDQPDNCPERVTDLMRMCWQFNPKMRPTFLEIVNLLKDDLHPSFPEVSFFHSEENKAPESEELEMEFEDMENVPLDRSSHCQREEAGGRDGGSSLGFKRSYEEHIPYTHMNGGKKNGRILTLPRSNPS

Row | Substance | IR binding in percent of human insulin [2] | IR binding in percent of human insulin [1]
1 | B(1-29)-B3Q-B29R-TGLGK(N^ε-3-(mPEG2000-yl)propionyl)GQ-A(1-21)-A18Q-A21G Human Insulin [Example 1] |  | 6.8%
2 | B(1-29)-B29A-VGLSSGQ-A(1-22)-A18Q-A22K(N^ε-3-(mPEG2000-yl)propionyl) Human Insulin [Example 6] |  | 12%
3 | B(1-29)-B1(N^α-3-(mPEG2000-yl)propionyl)-B29A-VGLSSGQ-A(1-21)-A18Q Human Insulin [Example 8] |  | 8.1%
4 | B(1-29)-B22K(N^ε-3-(mPEG2000-yl)propionyl)-B29A-A18Q-VGLSSGQ-A(1-21) Human Insulin [Example 2] |  | 19.7%
5 | B(1-29)-B29A-VK(N^ε-3-(mPEG2000-yl)propionyl)LSSGQ-A(1-21)-A18Q Human Insulin [Example 5] |  | 3.2%
6 | B(1-29)-B29K(N^ε-3-(mPEG2000-yl-propionyl)-VGLSSGQ-A(1-21)-A18Q Human Insulin [Example 3] |  | 5.3%
7 | B(1-29)-B3K(N^ε-3-(mPEG2000-yl)propionyl)-B29A-VGLSSGQ-A(1-21)-A18Q Human Insulin [Example 7] |  | 4.5%
8 | B(1-29)-B29A-VGLSSGQ-A(1-21)-A8K(N^ε-3-(mPEG2000-yl)propionyl)-A18Q Human Insulin [Example 4] |  | 4.6%

Second part, led by results:

Row | IR binding in percent of human insulin [2] | Substance | IR binding in percent of human insulin [1]
9 | 3.2% | B(1-29)-B29A-VK(N^ε-3-(mPEG2000-yl)propionyl)LSSGQ-A(1-21)-A18Q Human Insulin (from UniProt P01308 25-53; P01308 90-110) (ligand) | 
10 | 6.8% | B(1-29)-B3Q-B29R-TGLGK(N^ε-3-(mPEG2000-yl)propionyl)GQ-A(1-21)-A18Q-A21G Human Insulin (from UniProt P01308 25-53; P01308 90-110) (ligand) | 
11 | 4.5% | B(1-29)-B3K(N^ε-3-(mPEG2000-yl)propionyl)-B29A-VGLSSGQ-A(1-21)-A18Q Human Insulin (from UniProt P01308 25-53; P01308 90-110) (ligand) | 
12 | 12% | B(1-29)-B29A-VGLSSGQ-A(1-22)-A18Q-A22K(N^ε-3-(mPEG2000-yl)propionyl) Human Insulin (from UniProt P01308 25-53; P01308 90-110) (ligand) | 
13 | 19.7% | B(1-29)-B22K(N^ε-3-(mPEG2000-yl)propionyl)-B29A-A18Q-VGLSSGQ-A(1-21) Human Insulin (from UniProt P01308 25-53; P01308 90-110) (ligand) | 
14 | 5.3% | B(1-29)-B29K(N^ε-3-(mPEG2000-yl-propionyl)-VGLSSGQ-A(1-21)-A18Q Human Insulin (from UniProt P01308 25-53; P01308 90-110) (ligand) | 
15 | 4.6% | B(1-29)-B29A-VGLSSGQ-A(1-21)-A8K(N^ε-3-(mPEG2000-yl)propionyl)-A18Q Human Insulin (from UniProt P01308 25-53; P01308 90-110) (ligand) | 
16 | 8.1% | B(1-29)-B1(N^α-3-(mPEG2000-yl)propionyl)-B29A-VGLSSGQ-A(1-21)-A18Q Human Insulin (from UniProt P01308 25-53; P01308 90-110) (ligand) | 
